Experiment [1] has as its system Escherichia coli. Put plainly: microbe, parasite or virus in culture.
Experiment [2] concerns Escherichia coli. Put plainly: microbe, parasite or virus in culture. The source holds these as a separate data set.
In experiment [3] the target is Glucose-6-phosphate 1-dehydrogenase (Homo sapiens, UniProt P11413). Put plainly: inhibition of Homo sapiens G6PD, dose series – biochemical, fluorescence, selectivity assay for P. falciparum G6PD inhibitor project, dose response (AID 504792). It is filed as functional.
Chain of Glucose-6-phosphate 1-dehydrogenase (P11413 whole entry): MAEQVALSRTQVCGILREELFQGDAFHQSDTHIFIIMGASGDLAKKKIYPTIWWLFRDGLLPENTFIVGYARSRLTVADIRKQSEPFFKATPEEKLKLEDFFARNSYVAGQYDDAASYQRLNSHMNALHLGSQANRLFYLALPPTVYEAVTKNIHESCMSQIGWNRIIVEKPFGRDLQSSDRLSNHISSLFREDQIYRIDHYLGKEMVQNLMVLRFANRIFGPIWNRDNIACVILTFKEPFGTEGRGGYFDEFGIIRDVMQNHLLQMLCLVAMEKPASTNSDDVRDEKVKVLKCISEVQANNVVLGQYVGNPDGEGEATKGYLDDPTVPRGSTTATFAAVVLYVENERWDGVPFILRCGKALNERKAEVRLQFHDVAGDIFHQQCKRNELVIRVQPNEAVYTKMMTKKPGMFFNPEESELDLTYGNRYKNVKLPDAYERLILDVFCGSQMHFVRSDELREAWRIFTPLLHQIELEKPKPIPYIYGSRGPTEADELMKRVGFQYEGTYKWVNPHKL
A further experiment deals with Beta-galactosidase (Escherichia coli, UniProt Q8VNN2). Put plainly: detection-enzyme interference by beta-gal modulators – biochemical, E. coli enzyme, set 3, artefact control for CCR6 antagonist project, dose response (AID 504712). It is filed as functional.
Chain of Beta-galactosidase (Q8VNN2 whole entry): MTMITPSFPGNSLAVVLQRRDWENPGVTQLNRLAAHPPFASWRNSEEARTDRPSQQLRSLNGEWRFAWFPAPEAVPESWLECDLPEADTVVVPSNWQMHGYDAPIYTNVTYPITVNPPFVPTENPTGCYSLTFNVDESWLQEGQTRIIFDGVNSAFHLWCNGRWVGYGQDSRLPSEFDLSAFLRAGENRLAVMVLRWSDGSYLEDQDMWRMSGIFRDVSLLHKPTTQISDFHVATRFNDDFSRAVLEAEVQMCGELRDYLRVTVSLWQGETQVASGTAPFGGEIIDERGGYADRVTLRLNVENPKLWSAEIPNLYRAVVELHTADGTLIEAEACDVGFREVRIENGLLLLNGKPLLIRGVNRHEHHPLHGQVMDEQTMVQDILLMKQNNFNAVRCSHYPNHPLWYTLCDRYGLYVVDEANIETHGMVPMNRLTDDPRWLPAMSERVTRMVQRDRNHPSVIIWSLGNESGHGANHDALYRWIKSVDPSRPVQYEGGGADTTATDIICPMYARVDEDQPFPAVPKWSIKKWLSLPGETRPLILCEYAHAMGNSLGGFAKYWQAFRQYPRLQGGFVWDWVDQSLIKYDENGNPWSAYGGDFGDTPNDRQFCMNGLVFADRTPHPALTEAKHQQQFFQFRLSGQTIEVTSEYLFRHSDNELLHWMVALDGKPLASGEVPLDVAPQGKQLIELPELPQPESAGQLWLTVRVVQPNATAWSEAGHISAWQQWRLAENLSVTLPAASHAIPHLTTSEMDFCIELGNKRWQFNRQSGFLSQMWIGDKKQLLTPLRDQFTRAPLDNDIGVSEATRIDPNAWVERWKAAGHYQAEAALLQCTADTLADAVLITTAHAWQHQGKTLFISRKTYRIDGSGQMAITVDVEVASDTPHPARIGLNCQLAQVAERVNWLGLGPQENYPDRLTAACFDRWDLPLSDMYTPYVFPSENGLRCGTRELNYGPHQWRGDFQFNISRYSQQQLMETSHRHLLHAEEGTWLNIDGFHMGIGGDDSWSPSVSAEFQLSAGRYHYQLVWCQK
Another experiment addresses Nonstructural protein 1 (Influenza A virus, UniProt Q194T2). It is filed as functional, Influenza A virus (A/California/07/2009(H1N1)).
In the next experiment the target is T1, Hexokinase HKDC1 (Homo sapiens, UniProt Q2TB90).
T1 sequence (Q2TB90 whole entry): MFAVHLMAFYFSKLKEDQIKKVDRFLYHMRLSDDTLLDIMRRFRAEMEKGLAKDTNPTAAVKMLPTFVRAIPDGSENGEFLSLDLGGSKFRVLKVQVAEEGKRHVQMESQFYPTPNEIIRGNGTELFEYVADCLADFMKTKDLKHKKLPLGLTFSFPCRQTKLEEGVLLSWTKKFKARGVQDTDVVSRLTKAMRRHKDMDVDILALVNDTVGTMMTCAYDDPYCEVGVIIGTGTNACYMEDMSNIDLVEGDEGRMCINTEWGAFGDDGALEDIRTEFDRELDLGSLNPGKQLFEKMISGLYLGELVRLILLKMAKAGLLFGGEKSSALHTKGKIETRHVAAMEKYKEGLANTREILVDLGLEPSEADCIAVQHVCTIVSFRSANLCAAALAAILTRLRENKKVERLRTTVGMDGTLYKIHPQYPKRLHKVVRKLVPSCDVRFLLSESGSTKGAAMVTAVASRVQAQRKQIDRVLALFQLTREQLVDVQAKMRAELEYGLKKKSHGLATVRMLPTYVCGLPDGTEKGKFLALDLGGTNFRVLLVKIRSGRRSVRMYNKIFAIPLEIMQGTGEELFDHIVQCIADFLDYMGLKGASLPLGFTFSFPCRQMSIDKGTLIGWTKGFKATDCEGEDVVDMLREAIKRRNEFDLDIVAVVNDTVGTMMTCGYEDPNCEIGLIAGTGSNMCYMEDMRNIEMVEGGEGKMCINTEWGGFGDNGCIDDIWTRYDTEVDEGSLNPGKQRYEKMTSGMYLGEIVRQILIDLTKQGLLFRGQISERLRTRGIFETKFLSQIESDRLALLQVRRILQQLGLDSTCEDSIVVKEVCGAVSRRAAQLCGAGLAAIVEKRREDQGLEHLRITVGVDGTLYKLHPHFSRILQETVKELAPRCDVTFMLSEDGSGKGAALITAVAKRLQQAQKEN
Put plainly: inhibition of HKDC1 glucose phosphorylation – biochemical, W721R variant, dose response (AID 504729). It is filed as functional.

Another experiment deals with Vero. Put plainly: viability of Vero cells under compound – cytotoxicity control for flavivirus capping enzyme inhibitors (AID 588742). It is filed as functional. The following applies: Chlorocebus sabaeus.
Another experiment concerns the target Genome polyprotein (dengue virus type 2, UniProt P29990). As to the kind of experiment: flavivirus cap methylation enzyme inhibition – biochemical, confirmation dose response, primary screen (AID 588689). It is filed as functional.
Experiment [4] addresses T2, Histone-lysine N-methyltransferase NSD2 (Homo sapiens, UniProt O96028).
T2 sequence (O96028 whole entry): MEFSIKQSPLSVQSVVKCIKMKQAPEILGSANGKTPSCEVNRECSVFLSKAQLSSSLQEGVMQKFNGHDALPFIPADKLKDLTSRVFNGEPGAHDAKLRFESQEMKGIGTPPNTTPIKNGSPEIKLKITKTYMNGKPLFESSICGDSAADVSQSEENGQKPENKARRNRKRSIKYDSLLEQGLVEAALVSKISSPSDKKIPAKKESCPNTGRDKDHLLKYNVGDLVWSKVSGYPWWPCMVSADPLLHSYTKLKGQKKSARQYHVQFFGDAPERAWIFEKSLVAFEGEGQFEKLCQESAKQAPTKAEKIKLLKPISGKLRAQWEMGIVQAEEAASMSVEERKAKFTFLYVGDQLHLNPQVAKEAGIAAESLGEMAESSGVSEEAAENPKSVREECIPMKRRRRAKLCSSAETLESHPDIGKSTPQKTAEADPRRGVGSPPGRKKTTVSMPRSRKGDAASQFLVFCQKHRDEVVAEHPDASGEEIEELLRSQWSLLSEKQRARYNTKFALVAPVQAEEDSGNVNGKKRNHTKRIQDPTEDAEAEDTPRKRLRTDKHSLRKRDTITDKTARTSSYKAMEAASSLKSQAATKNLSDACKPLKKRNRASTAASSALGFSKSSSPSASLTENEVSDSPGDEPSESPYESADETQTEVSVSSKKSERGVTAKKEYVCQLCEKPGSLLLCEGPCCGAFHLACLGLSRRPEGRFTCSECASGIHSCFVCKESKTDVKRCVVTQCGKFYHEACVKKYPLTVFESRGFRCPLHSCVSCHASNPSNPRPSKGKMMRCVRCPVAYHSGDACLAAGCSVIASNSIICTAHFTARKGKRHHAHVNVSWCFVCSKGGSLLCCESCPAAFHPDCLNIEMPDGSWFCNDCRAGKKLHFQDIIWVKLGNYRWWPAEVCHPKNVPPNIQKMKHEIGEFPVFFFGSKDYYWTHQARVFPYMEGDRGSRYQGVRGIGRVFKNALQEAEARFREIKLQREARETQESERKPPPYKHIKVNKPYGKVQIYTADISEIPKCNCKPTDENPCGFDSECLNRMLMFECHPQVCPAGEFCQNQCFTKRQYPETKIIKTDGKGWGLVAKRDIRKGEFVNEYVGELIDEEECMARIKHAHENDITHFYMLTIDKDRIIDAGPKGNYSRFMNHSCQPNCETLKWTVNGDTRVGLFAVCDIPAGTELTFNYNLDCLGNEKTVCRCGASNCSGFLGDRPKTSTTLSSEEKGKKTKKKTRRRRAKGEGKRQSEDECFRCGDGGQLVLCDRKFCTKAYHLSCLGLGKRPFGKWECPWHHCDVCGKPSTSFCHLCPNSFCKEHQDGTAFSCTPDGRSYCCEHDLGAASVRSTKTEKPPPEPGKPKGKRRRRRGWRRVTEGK
It is filed as biochemical.

The nature of experiment [5]: viability loss in THP-1 monocytes – THP-1 cells, cytotoxicity control for Vif-APOBEC3G degradation inhibitor project, dose response (AID 1117359). It is filed as functional. As to conditions: THP-1.
For another experiment, the target named is T3, Streptokinase A (Streptococcus pyogenes serotype M1, UniProt P10520).
T3 sequence (P10520 whole entry): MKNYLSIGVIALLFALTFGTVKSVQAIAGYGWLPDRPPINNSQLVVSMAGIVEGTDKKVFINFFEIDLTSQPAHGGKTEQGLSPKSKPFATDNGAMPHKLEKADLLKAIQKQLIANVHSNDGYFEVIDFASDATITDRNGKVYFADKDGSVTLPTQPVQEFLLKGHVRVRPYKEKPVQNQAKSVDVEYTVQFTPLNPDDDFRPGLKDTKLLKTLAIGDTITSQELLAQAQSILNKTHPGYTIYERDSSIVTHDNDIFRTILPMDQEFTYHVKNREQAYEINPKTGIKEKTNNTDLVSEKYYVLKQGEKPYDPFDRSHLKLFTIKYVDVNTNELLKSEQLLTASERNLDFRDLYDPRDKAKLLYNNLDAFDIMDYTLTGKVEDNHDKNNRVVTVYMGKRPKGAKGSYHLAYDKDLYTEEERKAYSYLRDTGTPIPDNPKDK
As to the kind of experiment: viability-normalized secreted streptokinase activity reduction – plasminogen activation absorbance, OD405, dose response (AID 1914).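 Note: secreted streptokinase activity via plasminogen activation per viability signal from cell pellet.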 It is filed as functional, Streptococcus pyogenes M1 GAS.

Experiment [6] deals with Luciferin 4-monooxygenase (Photinus pyralis, UniProt P08659). As to the kind of experiment: inhibition of purified Photinus pyralis luciferase – biochemical, luminescence, dose response (AID 1891).
Chain of Luciferin 4-monooxygenase (P08659 whole entry): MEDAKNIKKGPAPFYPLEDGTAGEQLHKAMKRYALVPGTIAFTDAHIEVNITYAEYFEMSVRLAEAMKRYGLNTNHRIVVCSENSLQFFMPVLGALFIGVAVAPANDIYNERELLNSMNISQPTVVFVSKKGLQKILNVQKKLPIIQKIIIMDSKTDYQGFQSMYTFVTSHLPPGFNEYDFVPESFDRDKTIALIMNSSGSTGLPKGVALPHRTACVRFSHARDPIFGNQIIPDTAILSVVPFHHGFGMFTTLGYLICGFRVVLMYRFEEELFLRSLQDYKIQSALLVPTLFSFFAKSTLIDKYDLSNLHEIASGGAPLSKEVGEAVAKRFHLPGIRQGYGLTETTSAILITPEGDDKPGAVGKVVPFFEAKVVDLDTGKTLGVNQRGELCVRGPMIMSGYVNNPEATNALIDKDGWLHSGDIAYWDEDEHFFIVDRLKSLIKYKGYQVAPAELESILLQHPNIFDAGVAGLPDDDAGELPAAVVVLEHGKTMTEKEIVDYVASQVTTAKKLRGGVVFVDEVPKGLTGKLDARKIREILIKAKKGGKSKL
Experiment [7] in a line: Luminescence Cell-Based Dose Confirmation HTS to Identify Inhibitors of Platelet Dense Granule Release. [Related pubchem assays: 1663 (Primary HTS), 1678 (Summary of Project)]. It is filed as functional.
The next experiment relates to Streptococcus. As to the kind of experiment: GAS UMAA2166 growth inhibition – luminescence, BacTiterGlo, counter-screen for streptokinase expression inhibitor project, dose response (AID 1915).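 Note: potency for reduction of bacterial viability or growth.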 It is filed as functional, organism-based. A general note: A counterscreen serves to expose hits that act by an unwanted route or on another target.
Another experiment concerns HeLa. Put plainly: ATP-based viability loss in HeLa cells – cell-based, CellTiter-Glo luminescence, cherry-pick samples, cytotoxicity control for MITF activator project, dose response (AID 540259). It is filed as functional. As to conditions: Homo sapiens. On the technique in general: In ATP-based viability assays light output follows the ATP content of the culture.
The nature of a further experiment: cells. It is filed as functional, cell-based.
Experiment [8] has as its target T4, Nuclear receptor subfamily 0 group B member 1 (Homo sapiens, UniProt P51843). It is filed as functional, cell-based.
Experiment [9] in a line: viability loss in HepG2 hepatoma cells – cell-based, ATP luminescence, cherry-pick, activator set 2, cytotoxicity control, dose response (AID 1053143). It is filed as functional.
In the next experiment the test system is HEK293. As to the kind of experiment: cells. It is filed as functional, cell-based. As to conditions: Homo sapiens.
Experiment [10] has as its target T4, Nuclear receptor subfamily 0 group B member 1. As to the kind of experiment: Luminescence-based cell-based high throughput dose response assay for inhibitors of the orphan nuclear receptor subfamily 0, group B, member 1 (DAX1; NR0B1). [Related pubchem assays (depositor defined):AID504766, AID504790]. It is filed as functional.
In experiment [11] the target is Delta-type opioid receptor (Homo sapiens, UniProt P41143). As to the kind of experiment: Counterscreen for agonists of heterodimerization of the mu 1 (OPRM1) and delta 1 (OPRD1) opioid receptors: Luminescence-based cell-based high throughput dose response assay to identify agonists of OPRD1 homodimerization. [Related pubchem assays (depositor defined):AID504326, AID504355, AID504692, AID504904, AID504905]. It is filed as functional.
Chain of Delta-type opioid receptor (P41143 whole entry): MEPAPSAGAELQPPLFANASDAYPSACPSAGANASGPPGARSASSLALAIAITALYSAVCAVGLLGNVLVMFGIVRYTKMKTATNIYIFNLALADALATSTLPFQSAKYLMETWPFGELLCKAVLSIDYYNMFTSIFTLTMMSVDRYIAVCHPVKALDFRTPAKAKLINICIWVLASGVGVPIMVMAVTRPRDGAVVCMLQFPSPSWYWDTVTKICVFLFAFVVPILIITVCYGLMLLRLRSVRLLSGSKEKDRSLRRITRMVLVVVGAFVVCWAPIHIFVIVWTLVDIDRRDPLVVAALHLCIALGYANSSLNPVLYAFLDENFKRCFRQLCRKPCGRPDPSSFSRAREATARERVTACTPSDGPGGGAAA

Another experiment addresses Mu-type opioid receptor (Homo sapiens, UniProt P35372). As to the kind of experiment: Counterscreen for agonists of heterodimerization of the mu 1 (OPRM1) and delta 1 (OPRD1) opioid receptors: Luminescence-based cell-based high throughput dose response assay to identify agonists of OPRM1 homodimerization. It is filed as functional.
For experiment [12], the target named is Opioid receptors; mu & delta (Homo sapiens, UniProt P41143+P35372). As to the kind of experiment: OPRM1-OPRD1 heterodimer agonist potency – cell-based, luminescence, dose response (AID 588407). It is filed as functional.
In experiment [13] the target is 5-hydroxytryptamine receptor 5A (Homo sapiens, UniProt P47898). Put plainly: Counterscreen for agonists of OPRM1-OPRD1 heterodimerization: luminescence-based cell-based high throughput dose response assay to identify agonists of 5-hydroxytryptamine (serotonin) 5A receptor (HTR5A). [Related pubchem assays (depositor defined):AID504326, AID504355, AID504692, AID504904, AID504905]. It is filed as functional.
Chain of 5-hydroxytryptamine receptor 5A (P47898 whole entry): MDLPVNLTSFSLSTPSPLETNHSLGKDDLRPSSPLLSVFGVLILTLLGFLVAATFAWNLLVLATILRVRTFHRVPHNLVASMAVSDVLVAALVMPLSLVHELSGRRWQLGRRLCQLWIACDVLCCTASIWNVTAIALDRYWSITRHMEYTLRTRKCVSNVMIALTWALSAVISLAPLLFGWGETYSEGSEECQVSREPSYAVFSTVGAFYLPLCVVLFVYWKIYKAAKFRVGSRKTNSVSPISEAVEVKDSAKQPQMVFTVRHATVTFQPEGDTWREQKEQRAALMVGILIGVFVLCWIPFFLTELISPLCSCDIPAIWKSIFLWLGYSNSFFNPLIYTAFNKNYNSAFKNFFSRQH

Each structure is given as a SMILES string. The source made the active and inactive calls.

T4 sequence (P51843 whole entry): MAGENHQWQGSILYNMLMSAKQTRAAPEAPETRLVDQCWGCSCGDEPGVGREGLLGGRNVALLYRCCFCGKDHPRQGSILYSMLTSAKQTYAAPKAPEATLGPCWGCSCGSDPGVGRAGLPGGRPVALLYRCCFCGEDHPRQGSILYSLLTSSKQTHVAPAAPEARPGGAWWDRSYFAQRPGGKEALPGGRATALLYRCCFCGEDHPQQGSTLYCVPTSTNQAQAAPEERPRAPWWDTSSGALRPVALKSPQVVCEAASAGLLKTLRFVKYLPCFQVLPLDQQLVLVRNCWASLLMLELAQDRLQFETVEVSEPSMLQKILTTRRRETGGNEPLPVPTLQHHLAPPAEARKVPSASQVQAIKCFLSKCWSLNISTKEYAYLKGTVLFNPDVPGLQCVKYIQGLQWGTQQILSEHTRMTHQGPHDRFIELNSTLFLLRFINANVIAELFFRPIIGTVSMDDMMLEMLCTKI
Chain of Nonstructural protein 1 (Q194T2 whole entry): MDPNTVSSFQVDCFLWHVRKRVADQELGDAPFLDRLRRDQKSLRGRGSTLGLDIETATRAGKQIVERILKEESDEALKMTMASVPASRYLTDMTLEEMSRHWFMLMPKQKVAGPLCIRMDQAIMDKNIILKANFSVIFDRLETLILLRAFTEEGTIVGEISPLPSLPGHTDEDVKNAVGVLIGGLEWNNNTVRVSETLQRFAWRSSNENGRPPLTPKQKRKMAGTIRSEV
Chain of Mu-type opioid receptor (P35372 whole entry): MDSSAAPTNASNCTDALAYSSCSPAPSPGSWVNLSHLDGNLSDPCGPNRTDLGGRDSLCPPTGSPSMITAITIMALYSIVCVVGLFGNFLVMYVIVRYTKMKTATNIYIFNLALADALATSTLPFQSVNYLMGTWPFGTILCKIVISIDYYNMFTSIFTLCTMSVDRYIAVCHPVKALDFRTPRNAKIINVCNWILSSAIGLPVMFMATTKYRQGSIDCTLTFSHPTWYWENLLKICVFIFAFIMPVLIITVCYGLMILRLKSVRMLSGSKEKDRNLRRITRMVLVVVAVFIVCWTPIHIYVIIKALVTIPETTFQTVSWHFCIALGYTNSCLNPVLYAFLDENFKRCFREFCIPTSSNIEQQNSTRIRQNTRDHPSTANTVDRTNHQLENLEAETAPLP
Chain of Genome polyprotein (P29990 2492-3391 limits assumed): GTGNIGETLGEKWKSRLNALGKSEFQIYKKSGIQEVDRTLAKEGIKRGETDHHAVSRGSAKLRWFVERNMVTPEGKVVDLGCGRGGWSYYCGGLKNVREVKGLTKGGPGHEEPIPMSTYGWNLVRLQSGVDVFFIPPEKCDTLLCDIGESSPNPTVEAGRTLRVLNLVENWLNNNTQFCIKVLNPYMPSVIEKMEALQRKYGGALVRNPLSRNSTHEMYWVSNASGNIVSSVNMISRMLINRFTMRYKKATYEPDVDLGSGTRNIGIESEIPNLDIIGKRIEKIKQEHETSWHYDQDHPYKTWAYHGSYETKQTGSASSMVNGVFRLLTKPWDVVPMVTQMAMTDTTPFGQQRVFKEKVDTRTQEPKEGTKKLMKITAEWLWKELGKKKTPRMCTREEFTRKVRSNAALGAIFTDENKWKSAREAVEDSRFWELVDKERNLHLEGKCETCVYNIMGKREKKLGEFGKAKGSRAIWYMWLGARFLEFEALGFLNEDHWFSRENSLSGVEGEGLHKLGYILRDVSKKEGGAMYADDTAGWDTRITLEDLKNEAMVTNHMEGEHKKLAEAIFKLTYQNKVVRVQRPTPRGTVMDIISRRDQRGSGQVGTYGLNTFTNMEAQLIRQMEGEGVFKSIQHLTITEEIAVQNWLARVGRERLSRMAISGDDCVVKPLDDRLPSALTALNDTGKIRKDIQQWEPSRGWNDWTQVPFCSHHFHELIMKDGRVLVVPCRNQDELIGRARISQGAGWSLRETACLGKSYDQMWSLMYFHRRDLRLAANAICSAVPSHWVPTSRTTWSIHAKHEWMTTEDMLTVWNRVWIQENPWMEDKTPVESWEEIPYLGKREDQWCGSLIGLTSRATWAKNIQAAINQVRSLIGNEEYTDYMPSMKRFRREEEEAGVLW

As to `Cc1nn(C)cc1S(=O)(=O)Nc1ccccc1Br`, the AC50 in the experiment with Escherichia coli [1] is 65.8 µM (active); in the experiment on Escherichia coli [2], 66.8 µM (active).

Turning to `CC1COCC(C)N1C1=C(Cl)C(=O)c2ccccc2C1=O` (centres undefined), the IC50 in experiment [3] was 72.9 µM (inactive); at Beta-galactosidase it was > 66.6 µM (inactive); at Nonstructural protein 1, 17.9 µM (active); on Hexokinase HKDC1, > 80 µM (inactive); on Genome polyprotein, 16.2 µM (active). Further, the CC50 with Vero is 23.4 µM (active); in experiment [5], 16.1 µM (active). In [4], the AC50 is 0.873 µM (active).

Take `O=C(Nc1ccccc1)C(=O)Nc1ccc2c(c1)N(C(=O)C1CC1)CCC2`: the EC50 on Streptokinase A is > 150 µM (not active); in [6], 1.13 µM (active); in experiment [7], 3.74 µM (active); in the experiment with Streptococcus it was 25.4 µM (active). For the same compound, the AC50 in the experiment with HeLa was 14.1 µM (active); in experiment [9], 26 µM (active). Further, the IC50 (in “cells”; in experiment [8]) was > 67.5 µM (inactive) throughout.

Take `Cc1nc(N)nc(COc2ccccc2)n1`: the IC50 (in the experiment on HEK293; in experiment [10]) was > 67.4 µM (inactive) throughout.

Turning to `COc1ccc(NC(=O)COc2ccccc2C(=O)NCC(c2ccccc2)N(C)C)cc1Cl` (centres undefined), the EC50 in experiment [11] was 9.79 µM (active); at Mu-type opioid receptor, > 92.5 µM (inactive); in [12], greater than 3.425 µM; in experiment [13] it was > 92.5 µM (inactive).

Usually AC50 stands for the concentration at which the activity in the assay is half-maximal. Usually IC50 stands for the point on the concentration scale where inhibition reaches its midpoint. Broadly, the CC50 is the concentration at which the toxic effect on the cells reaches its halfway point. For orientation: EC50 means the concentration needed to bring the measured effect to its halfway point.

For the origin of these results see ChEMBL document CHEMBL1201862, “PubChem BioAssay data set” (2004).
